How the values were obtained:
[1] = system: MM.1S human SLAMF7^+ multiple myeloma solid tumors; assay: MM.1S solid tumor model in NSG mice, anti-tumor efficacy; format: in vivo; conditions: 2 million CAR^+ T cells per mouse, 5 mice per group (FIG. 17)
Method: (§1) First, MM.1S human SLAMF7^+ multiple myeloma cell line tumors were established in immunodeficient mice. In this model, the MM.1S cells formed a solid cutaneous mass. Measurable tumors were allowed to develop over 7 days, and then the mice were treated with a single intravenous infusion of MSGV1-IC9-Luc90-CD828Z-transduced human T cells. NSG mice (NOD.Cg-Prkdc^scid Il2rg^tm1Wjl/SzJ) from The Jackson Laboratory, Bar Harbor, Me., were used. Mice received intradermal injections of 4×10^6 MM.1S cells. The cells were suspended in a 1:1 mixture of MATRIGEL™ gelatinous protein mixture (BD Biosciences) and PBS (Phosphate-buffered saline) for injection. Tumors were allowed to grow for 7 days, and then each mouse received a single intravenous infusion of human T cells that were transduced with one of 3 CARs: IC9-Luc90-CD828Z (suicide gene+anti-SLAMF7 CAR), Luc90-CD828Z (anti-SLAMF7 CAR alone), or a negative-control anti-CD19 CAR Hu19-CD828Z. A 4th group was left untreated. All groups included 5 mice. After CAR T-cell infusion, the tumors were measured with calipers every 3 days. The longest length and the length perpendicular to the longest length and the tumor thickness were multiplied together to obtain the tumor volume in mm^3. When the longest length reached 15 mm, mice were sacrificed. Animal studies were approved by the National Cancer Institute Animal Care and Use Committee.
FIGS. 16A-16B show a dose-titration of IC9-Luc90-CD828Z-expressing T cells. In this experiment, immunocompromised NSG mice were injected intradermally with 4×10^6 MM.1S cells to form a solid mass. Mice were then treated with a single infusion of 0.5×10^6, 2×10^6, or 8×10^6, IC9-Luc90-CD828Z-expressing T cells. […] The tumor volume curves end when the first mouse of a group was sacrificed.
MM.'S tumors were established in NSG mice as described in Example 9. FIGS. 17A-17B show results in which mice bearing MM.1S tumors were treated with T cells expressing one of 3 different CARs: IC9-Luc90-CD828Z (suicide gene+anti-SLAMF7 CAR), Luc90-CD828Z (anti-SLAMF7 CAR alone), or a negative-control anti-CD19 CAR Hu19-CD828Z. A 4th group was left untreated in both experiments. All groups included 5 mice. The CARP T cell dose was 2 million CARP T cells per mouse. There were 5 mice in all groups.

SLAMF7-K562 = assay: IFN-gamma ELISA, CAR T cells cultured overnight with SLAMF7-K562 target cells; format: cell-based, human; conditions: Table E; overnight culture
Excerpt: (§2) MM.1S is a SLAMF7^+ multiple myeloma cell line that was obtained from American Type Culture Collection (ATCC). A549 is a BCMA-negative lung cancer cell line (ATCC). TC71 is a BCMA-negative sarcoma cell line. CCRF-CEM, 293T, and A549 are SLAMF7-negative cell lines (ATCC). COL0207, HepG2, U251, Panc10.05, and TC71 are […] that were kind gifts from Dr. Steven Rosenberg, National Cancer Institute. SLAMF7-K562 are K562 cells (ATCC) which were transduced with the gene for full-length SLAMF7. SLAMF7-RPMI are RPMI8226 cells (ATCC) which were transduced with the gene for full-length SLAMF7. NGFR-K562 are K562 cells which were transduced with the gene for low-affinity nerve growth factor (Kochenderfer et al., J. Immunother., 32(7): 689-702 (2009)). All of the human samples mentioned were obtained from patients enrolled in IRB-approved clinical trials at the National Cancer Institute.
(§3) One-hundred thousand SLAMF7^+ or SLAMF7-negative target cells were combined with 100,000 CAR-transduced T cells in duplicate wells of a 96 well round bottom plate in 200 µL of AIM V™ medium (Invitrogen) plus 5% human serum. The plates were incubated at 37° C. for 18-20 hours. Following the incubation, ELISAs (enzyme-linked immunosorbent assays) for IFNγ were performed by using standard methods.
(§4) The T cells columns indicate whether T cells were transduced with Luc90-CD828Z, Luc63-CD828Z, or were untransduced. The % CAR^+ in Table B-1 was determined by staining the T cells with Protein L. Except for the % CAR^+ column, all values are pg/mL of IFN-gamma. T cells that were either untransduced or transduced with one of the indicated CARs were cultured with target cells overnight and a standard IFN-gamma ELISA was performed on the culture supernatant.
(§5) All values are pg/mL of IFN-gamma. T cells that were either untransduced or transduced with one of the indicated CARs were cultured with target cells overnight, and a standard IFN-gamma ELISA was performed on the culture supernatant.

NGFR-K562 = assay: IFN-gamma ELISA, CAR T cells with NGFR-K562 target cells; format: cell-based, human; conditions: Table E
Excerpt: as §2, §3, §4, §5
(§6) The values in the cells are pg/mL of IFN-gamma. T cells that were either untransduced or transduced with one of the indicated CARs were cultured with target cells overnight, and a standard IFN-gamma ELISA was performed on the culture supernatant. The concentrations of 0, 50, or 200 ng/mL at the top of each column indicates the concentration of soluble SLAMF7 added to all T cell plus target cell overnight cultures in that column. The soluble SLAMF7 was added at the beginning of the overnight culture.

T cells only = assay: IFN-gamma ELISA, T cells only (no target cells); format: cell-based, human; conditions: Table E
Method: as §3, §4, §5, §6

MM.1S = assay: IFN-gamma ELISA, CAR T cells with MM.1S target cells; format: cell-based, human; conditions: Table E
Excerpt: as §2, §3, §5

CCRF-CEM = assay: IFN-gamma ELISA, CAR T cells with CCRF-CEM target cells; format: cell-based, human; conditions: Table E
Excerpt: as §2, §3, §5

SLAMF7^+ MM.1S cells = assay: Cytotoxicity assay (4 hours, relative to CCRF-CEM cells); format: cell-based, human; conditions: MM.1S relative to control CCRF-CEM cells (FIG. 8A)
Method: Cytotoxicity assays were conducted as previously described (see Kochenderfer et al., J. Immunother., 32(7): 689-702 (2009)). Cytotoxicity was measured by comparing survival of SLAMF7^+ target cells relative to the survival of negative-control CCRF-CEM cells. Both of these cell types were combined in the same tubes with CAR-transduced T cells. CCRF-CEM negative control cells were labeled with the fluorescent dye 5-(and -6)-(((4-chloromethyl)benzoyl)amino) tetramethylrhodamine (CMTMR) (Invitrogen), and SLAMF7^+ target cells were labeled with CFSE. Cocultures were set up in sterile 5 mL test tubes (BD Biosciences) in duplicate at multiple T cell to target cell ratios. The target cells contained in the tubes were 50,000 SLAMF7^+ target cells along with 50,000 CCRF-CEM negative-control cells. The cultures were incubated for 4 hours at 37° C. Immediately after the incubation, 7AAD (7-amino-actinomycin D) (BD Biosciences) was added, and flow cytometry acquisition was performed. For each T cell plus target-cell culture, the percent survival of SLAMF7^+ target cells was determined by dividing the percent live SLAMF7^+ cells by the percent live CCRF-CEM negative control cells. The corrected percent survival of SLAMF7^+ target cells was calculated by dividing the percent survival of SLAMF7^+ target cells in each T cell plus target cell culture by the ratio of the percent live SLAMF7^+ target cells to percent live CCRF-CEM negative-control cells in tubes containing only SLAMF7^+ target cells and CCRF-CEM cells without effector T cells. This correction was necessary to account for variation in the starting cell numbers and for spontaneous target cell death. Cytotoxicity was calculated as follows: the percent cytotoxicity of […] target cells=100−corrected percent survival of SLAMF7^+ target cells.

SLAMF7-K562 target cells = assay: CFSE proliferation assay; format: cell-based, human; conditions: SLAMF7-K562 versus NGFR-K562 target cells, 4 days (FIGS. 8B, 8C)
Excerpt: Cocultures were set up in 24-well plates. Target cells included in cocultures were either 0.5×10^6 irradiated SLAMF7-K562 cells or 0.5×10^6 irradiated NGFR-K562 cells. The cocultures also included 1×10^6 T cells from cultures that had been transduced with either […]. The T cells were labeled with carboxy fluorescein diacetate succinimidyl ester (CFSE, Invitrogen) as previously described. The medium used in the cocultures was AIM V™ (Invitrogen) plus 5% human AB serum. IL-2 was not added to the medium. Four days after initiation, the live cells in each coculture were counted with trypan blue for dead cell exclusion, and flow cytometry was performed by Protein L staining.

IC9-expressing T cells = assay: 6-hour and 48-hour post-rimiducid T cell death analysis; format: cell-based, human; conditions: for elimination of transduced T cells by AP1903: 1, 10 or 100 ng/mL; for annexin V staining of residual CAR^+ T cells: AP1903 6 hours; for annexin V staining of residual CAR+ cells: AP1903 48 hours
Method: On day 8 of culture, 1 million T cells from cultures that were either untransduced or transduced with one of the anti-SLAMF7 CARs cells were suspended at 1×10^6 T cells/mL in AIM V™ media (Invitrogen) plus 300 IU of interleukin-2. One million cells were added to each of 4 wells of a 12-well plate. A different concentration of AP1903 (MedChem Express, Princeton, N.J.) from was added to each well. AP1903 is also referred to as rimiducid. The concentrations of AP1903 evaluated were: 0, 1, 10, or 100 ng/mL.
Six hours and 48 hours after these cultures were set up, the cells were counted, washed, and stained with Protein L as described above. Next, the cells were washed twice with PBS, re-suspended in Annexin V binding buffer (BD Biosciences), and incubated with allophycocyanin-conjugated Annexin V (BD Biosciences) and 7AAD (BD Biosciences) for 15 minutes (mins) at room temp. The cells were immediately analyzed by flow cytometry.

[2] = system: IC9-Luc90-CD828Z CAR T cells; assay: AP1903 abrogation of CAR T-cell activity in MM.1S tumor-bearing mice; format: in vivo, NSG mice
Method: as §1
MM.1S tumors were established in NSG mice as described in Example 9. The mice were treated with 2×10^6 IC9-Luc90-CD828Z T cells. The mice received 5 mg/kg of AP1903 intraeritoneally for either 3 days or 12 days after the CAR T-cell infusion. […] Also levels of IC9-Luc90-CD828Z CART cells in the mice receiving AP1903 were reduced as compared to the mice receiving the vehicle.

[3] = T cells transduced with IC9-Luc90-CD828Z
[4] = T cells transduced with Luc90-CD828Z-IC9

For “Hu19-CD828Z: negative-control anti-CD19 CAR [reference compound]”, the anti-tumor activity [1] was “progressive tumors”.

With “Luc90-CD828Z-IC9: CAR plus suicide gene construct (SEQ ID NO: 30): Luc90-CD828Z, T2A, IC9 suicide gene 3′ to the CAR” the “IFN-gamma, SLAMF7-K562” value (SLAMF7-K562) was 2249 pg/mL, the “IFN-gamma, NGFR-K562” value (NGFR-K562) was 33 pg/mL and the “IFN-gamma, T-cells Alone” value (T cells only) was 39 pg/mL. The “IFN-gamma, MM.1S” value (MM.1S) was 1333 pg/mL, the “IFN-gamma, CCRF-CEM” value (CCRF-CEM) was 42 pg/mL and the “killing of SLAMF7^+ target cells” value (SLAMF7^+ MM.1S cells) was “specifically killed the SLAMF7^+ MM.1S cells”. The “proliferation (CFSE dilution)” value (SLAMF7-K562 target cells) was “proliferated more”.

With `CC[C@H](C(=O)N1CCCC[C@H]1C(=O)O[C@H](CCc1ccc(OC)c(OC)c1)c1cccc(OCC(=O)NCCNC(=O)COc2cccc([C@@H](CCc3ccc(OC)c(OC)c3)OC(=O)[C@@H]3CCCCN3C(=O)[C@@H](CC)c3cc(OC)c(OC)c(OC)c3)c2)c1)c1cc(OC)c(OC)c(OC)c1` [AP1903] the “elimination of transduced T cells by AP1903” value (“elimination … by AP1903” for short) (IC9-expressing T cells; T cells transduced with IC9-Luc90-CD828Z, 6 hours) was “most transduced cells exposed to either 1, 10, or 100 ng/mL of AP1903 were eliminated”, the “elimination … by AP1903” value (IC9-expressing T cells; T cells transduced with IC9-Luc90-CD828Z, 48 hours) was “most transduced cells exposed to either 1, 10, or 100 ng/mL of AP1903 were eliminated” and the “annexin V staining of residual CAR^+ T cells” value (IC9-expressing T cells; [3]) was “most residual CAR^+ T cells in the AP1903-treated cultures were annexin V^+”. For the same compound, the “annexin V staining of residual CAR+ cells” value (IC9-expressing T cells; [3]) was “most residual CAR+ cells were annexin V^+”, the “elimination … by AP1903” value (IC9-expressing T cells; T cells transduced with Luc90-CD828Z-IC9, 6 hours) was “most transduced cells exposed to either 1, 10, or 100 ng/mL of AP1903 were eliminated” and the “elimination … by AP1903” value (IC9-expressing T cells; T cells transduced with Luc90-CD828Z-IC9, 48 hours) was “most transduced cells exposed to either 1, 10, or 100 ng/mL of AP1903 were eliminated”. The “annexin V staining of residual CAR^+ T cells” value (IC9-expressing T cells; [4]) was “most residual CAR^+ T cells in the AP1903-treated cultures were annexin V^+”, the “annexin V staining of residual CAR+ cells” value (IC9-expressing T cells; [4]) was “most residual CAR+ cells were annexin V^+” and the “dependence of elimination on AP1903 concentration” value (IC9-expressing T cells; clinically-relevant range of concentrations tested (1-100 ng/mL)) was “did not depend on the concentration of AP1903”. The “tumor outcome in mice receiving AP1903 after CAR T cells” value ([2]; 2×10^6 IC9-Luc90-CD828Z T cells, AP1903 5 mg/kg intraperitoneally (FIG. 18)) was “progressive tumors” and the “levels of IC9-Luc90-CD828Z CAR T cells in mice” value ([2]; AP1903 5 mg/kg compared to vehicle) was “reduced”.
